The test deals with T1, Ectonucleotide pyrophosphatase/phosphodiesterase family member 1 (Homo sapiens, UniProt P22413).
T1 sequence (P22413 whole entry): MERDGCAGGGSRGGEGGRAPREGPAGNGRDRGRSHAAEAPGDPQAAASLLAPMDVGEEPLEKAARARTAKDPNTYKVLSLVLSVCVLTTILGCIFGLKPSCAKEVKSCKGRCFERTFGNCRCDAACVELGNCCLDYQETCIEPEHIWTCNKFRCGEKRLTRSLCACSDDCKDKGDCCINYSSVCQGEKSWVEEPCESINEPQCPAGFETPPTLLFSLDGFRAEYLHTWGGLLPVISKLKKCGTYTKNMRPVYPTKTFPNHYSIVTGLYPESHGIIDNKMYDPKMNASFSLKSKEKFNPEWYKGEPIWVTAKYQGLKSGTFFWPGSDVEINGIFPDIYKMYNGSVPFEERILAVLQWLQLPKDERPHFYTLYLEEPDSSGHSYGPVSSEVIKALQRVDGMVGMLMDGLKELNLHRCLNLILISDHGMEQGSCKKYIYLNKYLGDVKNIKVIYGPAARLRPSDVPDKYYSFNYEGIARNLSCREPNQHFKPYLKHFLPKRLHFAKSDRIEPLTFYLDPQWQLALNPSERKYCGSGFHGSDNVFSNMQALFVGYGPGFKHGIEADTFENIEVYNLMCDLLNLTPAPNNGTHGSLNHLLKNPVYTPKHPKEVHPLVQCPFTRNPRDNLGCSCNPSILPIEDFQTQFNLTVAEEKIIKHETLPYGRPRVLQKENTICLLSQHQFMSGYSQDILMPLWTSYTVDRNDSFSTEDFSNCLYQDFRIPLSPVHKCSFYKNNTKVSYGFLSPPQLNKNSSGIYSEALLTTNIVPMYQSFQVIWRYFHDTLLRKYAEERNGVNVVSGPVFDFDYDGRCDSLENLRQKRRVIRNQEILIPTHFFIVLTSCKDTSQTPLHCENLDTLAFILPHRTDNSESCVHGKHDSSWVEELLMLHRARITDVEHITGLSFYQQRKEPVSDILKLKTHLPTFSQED
The experiment in a line: Inhibition of ENPP1 hydrolysis of 2′,3′-cGAMP (Assay 1). The procedure: Test compounds were plated in a 3× dilution scheme in a 384 well plate.

Broadly, the Ki is a dissociation constant, usually derived from enzyme kinetics or from competition with a known ligand. A low value points to a stronger hold on the target.

With `Cc1c(Cc2ccc(S(C)(=N)=O)cc2)c(N(C)C)nc2ncnn12` (configuration not stated) [US20240376113, Compound 86], the Ki is 0.000138 µM. This lies in the sub-nanomolar range.

Turning to `Cc1c(Cc2ccc(S(C)(=N)=O)cc2)c(N)cc2ncnn12` (configuration not stated) [US20240376113, Compound 89], the Ki worked out at 0.028 µM.

The values above are taken from BindingDB's records for patent US20240376113 (Volastra Therapeutics, 2024).
